Experimental data reported in ChEMBL document CHEMBL2448688, “Selection and optimization of hits from a high-throughput phenotypic screen against Trypanosoma cruzi. Exported from HEOS 25-Oct-2013. See also related datasets CHEMBL3137440 and CHEMBL3137386”.
In brackets after ≈: the same amount, converted by molar mass. Several values for one entry are separate records, joined by “and”; a condition that tells them apart may be missing. Equal entries are not always repeated.

Tests used:
Trypanosoma cruzi [1] = experiment: (§1) DNDI: Chagas in Vitro; format: functional, Tulahuen C4 (LacZ)
[2] = (§2) DNDI: Cytotoxicity in vitro, against rat skeletal myoblast (L-6) cells; conditions: L-6 cells (skeletal myoblasts), IC50
L6 = experiment: as §2; conditions: L-6 cells (skeletal myoblasts)
[3] = system: Trypanosoma brucei rhodesiense; experiment: DNDI: HAT in Vitro; format: functional, organism-based, ATCC 30027
Trypanosoma cruzi [4] = experiment: as §1; format: functional, organism-based, Tulahuen C4 (LacZ)
[5] = DNDI: Lipophilicity (gLogD) at pH 3; conditions: buffer, pH 3, logD
[6] = DNDI: Lipophilicity (gLogD) at pH 7.4; conditions: buffer, pH 7.4, logD
[7] = DNDI: Solubility in 0.01M HCl at pH 2 determined by nephelometry; conditions: 0.01M HCl, pH 2, Kinetic
in vitro [8] = conditions: human, microsomes
in vitro [9] = conditions: human, microsomes, t (1 / 2)
in vitro [10] = conditions: mouse, microsomes
in vitro [11] = conditions: mouse, microsomes; remark: listed apart in the source
in vitro [12] = conditions: rat, microsomes
in vitro [13] = conditions: rat, microsomes; remark: listed apart in the source
[14] = DNDI: Cytotoxicity in vitro, against human lung fibroblast (MRC-5) cells; conditions: MRC-5 cells (lung fibroblasts)
Leishmania infantum = experiment: DNDI: Leish (macro) in Vitro; format: functional, organism-based, MHOM/MA(BE)/67
[15] = DNDI: Solubility in phosphate buffer at pH 6.5 determined by nephelometry; conditions: phosphate buffer, pH 6.5, Kinetic
Cytochrome P450 3A4 = Cytochrome P450 3A4 (Homo sapiens, UniProt P08684); experiment: DNDI: Human CYP3A4 inhibition determined using 6b-hydroxylation of testosterone
Cytochrome P450 3A4, sequence (P08684 whole entry): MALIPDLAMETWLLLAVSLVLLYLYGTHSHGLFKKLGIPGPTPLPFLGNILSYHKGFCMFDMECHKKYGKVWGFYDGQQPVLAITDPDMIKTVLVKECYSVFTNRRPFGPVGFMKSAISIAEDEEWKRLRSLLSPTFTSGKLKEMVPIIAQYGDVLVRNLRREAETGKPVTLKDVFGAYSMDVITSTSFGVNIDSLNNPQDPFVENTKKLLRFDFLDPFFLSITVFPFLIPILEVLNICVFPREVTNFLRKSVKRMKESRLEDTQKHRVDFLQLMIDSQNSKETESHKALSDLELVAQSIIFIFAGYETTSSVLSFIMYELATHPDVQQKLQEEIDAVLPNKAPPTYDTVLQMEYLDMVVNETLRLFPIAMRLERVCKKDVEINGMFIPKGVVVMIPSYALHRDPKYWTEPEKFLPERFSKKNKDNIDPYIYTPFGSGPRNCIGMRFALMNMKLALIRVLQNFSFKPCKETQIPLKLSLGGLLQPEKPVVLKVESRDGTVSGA

in vitro [16] = conditions: human, microsomes, EH
CYP3A4 [17] = biological target: T1, CYP3A4 (Homo sapiens, UniProt P08684); experiment: DNDI: Human CYP3A4 inhibition at 1 uM determined using 6b-hydroxylation of testosterone; conditions: probe testosterone (6b-hydroxylation)
T1 sequence (P08684 whole entry): as above

CYP3A4 [18] = biological target: T1, CYP3A4; experiment: DNDI: Human CYP3A4 inhibition at 10 uM determined using 6b-hydroxylation of testosterone; conditions: probe testosterone (6b-hydroxylation)
Trypanosoma cruzi [19] = experiment: DNDI: Chagas in vivo at 20 mg/kg, 20 days 2x; format: functional, Tulahuen Swiss po
[20] = DNDI: Metabolism; format: ADME, Microsome; conditions: rat, microsomes
in vitro [21] = conditions: rat, hepatocytes
[22] = Trypanosoma cruzi, Tulahuen C4 (LacZ)
[23] = Leishmania infantum, MHOM/MA(BE)/67

Row | SMILES | IC90 (Trypanosoma cruzi [1]) | IC50 ([3]; Trypanosoma brucei, ATCC 30027) [nM] | IC50 (Trypanosoma cruzi [4]) | IC50 (Trypanosoma cruzi [4]; [22]) [nM] | IC90 (Trypanosoma cruzi [1]; [22]) [nM] | chromatographic logD [5] | chromatographic logD [6] | solubility kinetic [7] [µg/mL] | microsomal CLint (in vitro [8]) [µL/min/mg] | half-life (in vitro [9]) [min] | solubility kinetic [15] [µg/mL] | IC50 (Cytochrome P450 3A4) [nM] | hepatic extraction ratio (in vitro [16]) | inhibition at 10 µM (CYP3A4 [18]) [%] | IC50 [2] [nM] | further results
1 | CO/N=C(\C)c1ccc(-n2ccnc2)c(NC(=O)c2ccc(-c3ccccc3)nc2)c1 | 24.5 nM |  | 9 nM | 13 | 29.1 | 2.5 | 3.3 | > 100 | 26 | 66 |  |  |  |  | > 100000 | microsomal CLint (in vitro [10]): 33 µL/min/mg; half-life (in vitro [11]): 53 min; half-life (in vitro [12]): 36 min; microsomal CLint (in vitro [13]): 48 µL/min/mg
2 | CCOC(COc1ccc2cc(Br)ccc2c1)Cn1ccnc1.O=CO (stereo not drawn) |  | > 10000 |  | 16 | 59 | 3.3 | 4.5 | > 100 | 14 | 120 | 12.5 | < 250 | 0.36 |  | 44200 | 
3 | CCN(CC)S(=O)(=O)c1ccc(-n2ccnc2)c(NC(=O)c2cnc(-c3ccccc3)nc2)c1 | 23.5 nM and 8.03 nM | > 10000 | 6.5 nM and 0.8 nM |  |  | 2.7 | 3.2 | 50 (≈ 105 µM) | 166 | 10 | 1.6 (≈ 3.36 µM) | 20000 | 0.9 |  | > 100000 | 
4 | CCN(c1ccccc1)S(=O)(=O)c1ccc(Cl)c(NC(=O)CNC2CCCN(C)C2)c1.O=CO (stereo not drawn) |  | 910 |  | > 1000 | > 1000 | -0.12 | 1.56 | 101 | 89 | 19.5 | 94.4 | 16300 | 0.815 |  | 45700 | 
5 | O=C(Nc1cc(C(F)(F)F)ccc1-n1ccnc1)c1cnc(-c2ccccc2)nc1 |  | > 10000 |  | > 100 | > 100 |  |  |  |  |  |  |  |  |  | > 100000 | IC50 [14]: > 64000 nM; IC50 (Leishmania infantum; [23]): > 64000 nM
6 | CN(CC(O)COc1ccc2cc(Br)ccc2c1)C1CCCCC1 (stereo not drawn) | 7840 nM |  | 4640 nM | 4550 | 8480 | 2.6 | 3.6 | > 100 | 13 | 132 | > 100 | > 10000 | 0.34 | 11 | 16600 | inhibition at 1 µM (CYP3A4 [17]): 5%; IC50 (L6): 17000 nM; IC50 [14]: > 64000 nM; IC50 (Leishmania infantum): 1680 nM and 2000 nM; IC50 (Leishmania infantum; [23]): 1260 nM
7 | CCN(Cc1cccnc1)c1cncc(-c2nc3ccccc3s2)c1 |  | > 10000 |  | 171 | 354 | 1.56 | 3.67 | 66.3 (≈ 191 µM) | 414 | 4.2 | 3.52 (≈ 10.2 µM) | 790 | 0.953 |  | 31800 | 
8 | CO/N=C(\C)c1ccc(-n2ccnc2)c(NC(=O)c2ccc(-c3ccccc3)cc2)c1 |  |  |  | 20.4 | 65 | 3.1 | 3.9 | > 100 | 30 | 58 | < 1.6 |  |  |  | > 100000 | CLblood [20]: 35 mL/min/kg; microsomal CLint (in vitro [10]): 31 µL/min/mg; half-life (in vitro [11]): 56 min; CLhep predicted (in vitro [21]): 24.5 mL/min/kg; half-life (in vitro [12]): 40 min; microsomal CLint (in vitro [13]): 43 µL/min/mg
9 | CS(=O)(=O)N(Cc1cnc[nH]1)c1ccc(-c2nc3ccccc3s2)cc1 |  |  |  |  |  | 1.6 | 2.3 | > 100 | 55 | 32 |  | 1500 | 0.68 | 85 |  | PCR cure rate (Trypanosoma cruzi [19]): 0%; Parasitemia clearance after immunosuppression (Trypanosoma cruzi [19]): 0%; Parasitemia clearance after treatment (Trypanosoma cruzi [19]): 100%; inhibition at 1 µM (CYP3A4 [17]): 48%
10 | CO/N=C(\C)c1ccc(-n2ccnc2)c(NC(=O)c2cnc(-c3ccccn3)s2)c1 | 17 nM | > 10000 | 5.5 nM | 2.93 | 19.4 | 1.8 | 2.7 | > 100 | 20 | 85 | 6.3 (≈ 15.1 µM) |  |  |  | 68000 | IC50 (L6): > 100000 nM; microsomal CLint (in vitro [10]): 75 µL/min/mg; half-life (in vitro [11]): 23 min
11 | CCN(Cc1c[nH]cn1)c1ccc(-c2nc3ccccc3s2)cc1 |  |  |  | 15.3 | 156 | 2.1 | 3.4 | > 100 | < 7 | > 250 | 3.1 (≈ 9.27 µM) | 4000 | < 0.23 | 80 | 36000 | PCR cure rate (Trypanosoma cruzi [19]): 0%; Parasitemia clearance after immunosuppression (Trypanosoma cruzi [19]): 0%; Parasitemia clearance after treatment (Trypanosoma cruzi [19]): 80%; inhibition at 1 µM (CYP3A4 [17]): 37%
12 | CS(=O)(=O)N(Cc1cnc[nH]1)c1cc(F)cc(-c2nc3ccccc3s2)c1 | 569 nM and > 1000 nM |  | 65 nM and 74 nM | 70 | 615 |  |  |  |  |  |  |  |  |  | 66900 | IC50 (L6): 63900 nM
13 | Cl.NCC(=O)N(Cc1cccnc1)c1ccc(-c2nc3ccccc3s2)cc1 |  |  |  |  |  |  |  |  |  |  |  |  |  |  |  | PCR cure rate (Trypanosoma cruzi [19]): 20%

More lines, main results first:

Row | IC90 (Trypanosoma cruzi [1]) | IC50 ([3]; Trypanosoma brucei, ATCC 30027) [nM] | IC50 (Trypanosoma cruzi [4]) | IC50 (Trypanosoma cruzi [4]; [22]) [nM] | IC90 (Trypanosoma cruzi [1]; [22]) [nM] | chromatographic logD [5] | chromatographic logD [6] | solubility kinetic [7] [µg/mL] | microsomal CLint (in vitro [8]) [µL/min/mg] | half-life (in vitro [9]) [min] | solubility kinetic [15] [µg/mL] | IC50 (Cytochrome P450 3A4) [nM] | hepatic extraction ratio (in vitro [16]) | inhibition at 10 µM (CYP3A4 [18]) [%] | SMILES | IC50 [2] [nM] | further results
14 | > 10000 nM | 5430 |  |  |  |  |  |  |  |  |  |  |  |  | CCN(c1ccccc1)S(=O)(=O)c1ccc(Cl)c(NC(=O)CN(C)C2CCN(C)CC2)c1 | 51500 | IC50 (L6): 54100 nM
15 |  | 1420 |  |  |  | 2.9 | 4.4 | > 100 | 169 | 10 | > 100 |  |  |  | CCN(c1ccccc1)S(=O)(=O)c1ccc(NC(=O)CN(C)C2CCN(C)CC2)c(Cl)c1.Cl |  | IC50 [14]: 40600 nM; IC50 (Leishmania infantum): 11300 nM and 24000 nM
16 |  | 604 |  | > 1000 | > 1000 |  |  | 95.9 (≈ 204 µM) | 334 | 5.2 | 14.5 (≈ 30.8 µM) | 5830 | 0.943 |  | CCN(c1ccccc1)S(=O)(=O)c1ccc(Cl)c(NC(=O)c2ccc3c(c2)CCNC3)c1 | 19900 | IC50 [14]: 29400 nM; IC50 (Leishmania infantum): 2160 nM and 8000 nM
17 | 8950 nM and 8790 nM and > 10000 nM |  | 6400 nM and 5430 nM and 5750 nM and 5780 nM and 6570 nM | > 10000 | 8780 | 2.6 | 3.6 | > 100 | < 7 | > 250 | > 100 | > 20000 | < 0.23 |  | CC(C)N(C)CC(O)COc1ccc2cc(Br)ccc2c1 (stereo not drawn) | 19200 | IC50 (L6): 34800 nM; IC50 [14]: > 64000 nM; IC50 [3]: 507 nM and 1550 nM; IC50 (Leishmania infantum): 6730 nM and 2380 nM
18 |  | 7120 |  | 5560 | > 10000 |  |  |  |  |  |  |  |  |  | CN1CCCC(CNCC(O)COc2ccc3cc(Br)ccc3c2)C1 (stereo not drawn) | 19000 | IC50 (Leishmania infantum): 2030 nM and 1700 nM and 540 nM
19 | 2.77 nM | > 10000 | 0.9 nM | 0.617 | 3 |  |  |  |  |  |  |  |  |  | CO/N=C(\C)c1ccc(-n2ccnc2)c(NC(=O)c2cnc(-c3ccccc3)s2)c1 |  | PCR cure rate (Trypanosoma cruzi [19]): 0%
20 |  |  |  | 63 | 148 | 1.3 | 2.4 | > 100 | 18 | 99 |  | > 10000 | 0.4 | 27 | O=C(Nc1ccccc1-n1ccnc1)c1cnc(-c2ccccc2)nc1 | > 100000 | 
21 |  |  |  | 23 | 151 | 1.6 | 2.7 | > 100 | 93 | 19 |  | > 10000 | 0.78 | 49 | Cc1ccc(-n2ccnc2)c(NC(=O)c2cnc(-c3ccccc3)nc2)c1 | > 100000 | inhibition at 1 µM (CYP3A4 [17]): 15%
22 | 9.1 nM |  | 2.6 nM | 2.2 | 8.4 | 1.6 | 2.3 | > 100 | 28 | 61 |  | < 1000 | 0.52 | 86.1 | CS(=O)(=O)N(Cc1c[nH]cn1)c1ccc(-c2ccc(F)cc2)cc1F | > 100000 | inhibition at 1 µM (CYP3A4 [17]): 51.6%
23 | 639 nM |  | 5.3 nM | 6.2 | 769 | 2.8 | 3.7 | > 50 | 117 | 15 | 3.1 (≈ 7.52 µM) | < 1000 | 0.82 | 91.9 | CO/N=C(\C)c1ccc(-n2ccnc2)c(NC(=O)c2cncc(-c3ccccc3)n2)c1 | 4160 | inhibition at 1 µM (CYP3A4 [17]): 75.9%; IC50 (L6): 6360 nM
